Results reported in patent publication US20140348958A1, “Anticancer Active Ingredient From Guiera Senegalensis” (UNIVERSITE D'AUVERGNE CLERMONT I, priority 2011, published 2014).
Values joined by “and” are separate entries in the source; they are usually repeats but may differ in a detail not shown here. Equal entries are not always repeated. Where two headings read alike, the source gives them in different places.

System: mammary cancer cells MCF-7
Assay: Proliferation measurement of mammary cancer cells MCF-7 (resazurin, 72 hrs exposure)
Format: cell-based
Settings: for IC50: Homo sapiens; for Inhibition percentage: screening, single values and Averages
Experimental: Detailed Procedure of the Proliferation Measurement of Mammary Cancer Cells MCF-7
1st Part Day 1: Sowing the Cells
1. Preparation of the Medium:
• Preparation of the volume to be put into the plates:
In a 50 mL Falcon, prepare 30 mL of complete RPMI with 10% FCS and 1% Glutamine: 27 mL of RPMI: 3 mL of FCS and 300 μL of Glutamine.
2. Preparation of the Cell Suspension:
• Suck up the medium contained in the flask with the vacuum pump • Rinse with 3 mL of PBS and suck up with the vacuum pump • Add 1 mL of trypsin and let it act for 3 mins in the oven at 37° C. in order to detach the cells. • When the cells are detached, add 2 mL of complete medium prepared previously for inactivating the trypsin. • Mix well the suspension by suction-discharge and transfer into a well-defined Falcon 15. • Count the cells in a Malassez cell: carry out dilution to one 20th for counting them with Trypan blue.
• Sow the plates with 200 μL of cell suspension according to the determined scheme • Put 200 μL of water in the peripheral wells • Leave for incubation for 24 hours.
2nd Part: Day 2, the Extract is Exposed
4. Preparation of the Medium:
A total of 45 mL of medium to be prepared in a Falcon 50 sterilized i.e. 40.5 mL of RPMI+4.5 mL of FCS+450 μL of glutamine
5. Preparation of the Extracts:
• prepare a 10 mg/mL solution: • Dissolve 8.1 mg of crude extract (noted as SF) according to Example 1, of the SF 5 fraction according to Example 2 or of the KP-18^E fraction (Guieranone B) in 810 μL of DMSO • Prepare the mother solution of extract (Ex) at 100 μg/mL i.e. 50 μL of (10 mg/ml) in 4,950 μL of RPMI • Produce the range of extracts (for 1 extract and only 1 range). • Remove the medium in the plates and add 200 μL per well of an extract range (one column per concentration). • Incubate the plates in the oven at 37° C. for 72 hrs.
6. Prepare Resazurin (Developer) and Read the Plate to
2 columns of cells+one column of resazurin alone=3 columns
200 μL/well×3 columns×6 lines=3,600 μL (total volume to be prepared: 5 mL) • Prepare 4.9 mL of medium+100 μL resazurin
Remove the medium and add 200 μL of (medium+resazurin) per well. • Incubate for 2 hours and read with fluorskan. 3rd Part: Measurement of Proliferation at 24 Hours (for t0), 72 Hrs for Extract • For the extract at 72 hrs:
200 μL/well×18 columns×6 lines (total volume to be prepared: 25 mL) • Prepare 24.5 mL of RPMI+500 μL of resazurin • Remove the medium and add 200 μL of (medium+resazurin) per well. • After 2 hours, readout with fluorskan.

[1] = MCF7, MCF-7 mammary cancer cell line, same conditions (Table 2), read-out: Average Cl50 in μM
[2] = MCF7, MCF-7 mammary cancer cell line, same conditions (Table 2), read-out: Average Cl50 in μg/mL
[3] = MCF7, mammary cancer line MCF-7, same conditions (Table 15, identical with Table 2), read-out: Average CI50 in μM
[4] = MCF7, mammary cancer line MCF-7, same conditions (Table 15, identical with Table 2), read-out: Average CI50 in μg/mL

Question: What does the source list for `O=c1[nH]cc(F)c(=O)[nH]1` [5-FU, 5-Fluorouracil, reference compound]?
Answer: IC50 [1]: 4.04 ± 0.39 µM; IC50 [2]: 0.53 ± 0.05 µg/mL; IC50 [3]: 4.04 ± 0.39 µM; IC50 [4]: 0.53 ± 0.05 µg/mL

Question: How did the IC50 (MCF7, 72 h, KP-18E, MCF-7, 72 hrs, average of the 6 tests, read-out: Average C150) turn out when `C/C=C/C(=O)C1=CC(OC)=C2C(=O)C(OC)=CC(OC)=C2C1=O` [Guieranone B] was run?
Answer: 2.25 µg/mL

Question: And the IC50 (MCF7, 72 h, KP-18E, MCF-7, 72 hrs, each of the 6 tests (1-2, N1-N3), read-out: CI50 (the source's name))?
Answer: 2.05 µg/mL

Question: And the IC50 [1]?
Answer: 7.09 µM

Question: And the IC50 [2]?
Answer: 2.24 ± 0.13 µg/mL

Question: And the IC50 [3]?
Answer: 7.09 µM

Question: What about the IC50 [4] of the same compound?
Answer: 2.24 ± 0.13 µg/mL

Question: And the Inhibition percentage (KP-18E 1.5 μg/mL, MCF-7, 72 hrs)?
Answer: 49.86% and 36.10% and 48.15% and 50.66% and 53.59% and 53.16%

Question: What about the Inhibition percentage (KP-18E 1.5 μg/mL, MCF-7, 72 hrs, mean) of the same compound?
Answer: 48.59%

Question: What about the Inhibition percentage (KP-18E 2 μg/mL, MCF-7, 72 hrs) of the same compound?
Answer: 68.59% and 62.54% and 43.35% and 59.58% and 61.13% and 48.79%

Question: What about the Inhibition percentage (KP-18E 2 μg/mL, MCF-7, 72 hrs, mean) of the same compound?
Answer: 57.33%

Question: And the Inhibition percentage (KP-18E 2.5 μg/mL, MCF-7, 72 hrs)?
Answer: 69.73% and 57.84% and 59.61% and 65.92% and 65.73% and 68.02%

Question: What about the Inhibition percentage (KP-18E 2.5 μg/mL, MCF-7, 72 hrs, mean) of the same compound?
Answer: 64.48%

Question: What about the Inhibition percentage (KP-18E 3 μg/mL, MCF-7, 72 hrs) of the same compound?
Answer: 94.22% and 77.40% and 86.16% and 83.19% and 84.81% and 92.10%

Question: What about the Inhibition percentage (KP-18E 3 μg/mL, MCF-7, 72 hrs, mean) of the same compound?
Answer: 86.31%

Question: What about the Inhibition percentage (KP-18E 4 μg/mL, MCF-7, 72 hrs) of the same compound?
Answer: 100.00% and 99.38%

Question: What about the Inhibition percentage (KP-18E 4 μg/mL, MCF-7, 72 hrs, mean) of the same compound?
Answer: 99.90%

Question: What about the Inhibition percentage (KP-18E 5 μg/mL, MCF-7, 72 hrs) of the same compound?
Answer: 100.00%

Question: And the CI50 (KP-18E, MCF-7, 72 hrs, each of the 6 tests (1-2, N1-N3))?
Answer: 2.7202 µg/mL and 2.1664 µg/mL and 2.5518 µg/mL and 2.067 µg/mL and 1.9176 µg/mL

Question: And the “antiproliferative activity (in words)” value (line of mammary cancer cells MCF-7)?
Answer: high antiproliferative activity
